# Reference: PubChem BioAssay (NCI)
# “And” between values parts separate entries of the source, which are not always exact repeats. Equal values may be shown once.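 Test compounds were applied to cells in 96-well plates for 48 hours at 5 doses. GI50: concentration for 50% inhibition of growth. At the TGI there is no net growth.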
# How the values were obtained:
# Assay in all cases: growth of human tumour cells (NCI), 48 h
# [1] = test system: BT-549 breast
# [2] = test system: HT29 colon
# [3] = test system: RPMI-8226 leukemia
# [4] = test system: RXF 393 renal
# [5] = test system: SK-MEL-28 melanoma
# [6] = test system: SK-OV-3 ovarian
# [7] = test system: SR leukemia
# [8] = test system: TK-10 renal
# [9] = test system: UACC-62 melanoma
# [10] = test system: MALME-3M melanoma
Compound,GI50 [1],TGI [1],GI50 [2],TGI [2],GI50 [3],TGI [3],GI50 [4],TGI [4],GI50 [5],TGI [5],GI50 [6],TGI [6],GI50 [7],TGI [7],GI50 [8],TGI [8],GI50 [9],TGI [9],TGI [10],GI50 [10]
N=C1C(c2nc3ccccc3s2)=C(O)CN1c1ccc(Cl)cc1Cl,17.8 µM,49.6 µM,16.4 µM,> 100 µM,18.9 µM,62.1 µM,10.8 µM,36.1 µM,21 µM,> 100 µM,32.2 µM,> 100 µM,1.49 µM,34.6 µM,14.4 µM,42.8 µM,12 µM,52.9 µM,,
NCC1OC(n2cnc3c(=O)[nH]c(N)nc32)C(O)C1O (stereo unspecified),,> 100 µM,,> 100 µM,,> 63.8 µM,,> 100 µM,,> 100 µM,,> 100 µM,,,,> 100 µM,,> 100 µM,> 100 µM,
ClC1(c2ccccc2)c2ccc(Br)cc2-c2cc(Br)ccc21,,37.7 µM,,26 µM,,64.8 µM,,36.6 µM,,35.8 µM,,39.1 µM,,70.6 µM,,34.8 µM,,,32.5 µM,
N#Cc1ccc(-c2nc3ccc(Cl)cc3[nH]2)cc1,,> 100 µM,,> 100 µM,,> 100 µM,,> 100 µM,,,,> 100 µM,,> 100 µM,,,,,,
CCOC(=O)C#Cc1ccc([N+](=O)[O-])cc1,,4.76 µM,,2.94 µM,,4.68 µM,,2.63 µM,,23.4 µM,,25.6 µM,,5.27 µM,,27.4 µM,,4.05 µM,,
COc1cc2c(Nc3ccc(Br)cc3F)ncnc2cc1OCC1CCN(C)CC1,7.38 µM and > 10 µM,19.7 µM and > 10 µM,2.38 µM and 3.39 µM,10.8 µM and > 10 µM,3.33 µM and 6.84 µM,14 µM and > 10 µM,1.44 µM and 1.29 µM,4.77 µM and 8.32 µM,1.68 µM and 1.78 µM,3.27 µM and 4.2 µM,1.2 µM and 1.67 µM,7.06 µM and > 10 µM,2.55 µM and 2.89 µM,8.29 µM and > 10 µM,0.317 µM and 0.54 µM,6.58 µM and > 10 µM,1.8 µM and 2.79 µM,4.03 µM and > 10 µM,3.85 µM and > 10 µM,1.83 µM and 4.47 µM
COC1CC2C=CC3C4OC2(/C(C)=C/C(C)C(C(C)O)OC1=O)C3C(O)C(C)C4OC(=O)c1ccc[nH]1 (stereo unspecified),,> 100 µM,,> 100 µM,,> 100 µM,,,,> 100 µM,,,,77 µM,,> 100 µM,,> 100 µM,,
COc1cc2c(=O)n(CCCn3ccnc3)c3c4cc5c(cc4ccc3c2cc1OC)OCO5,0.701 µM,> 100 µM,0.492 µM,> 100 µM,,,0.316 µM,14.3 µM,2 µM,> 100 µM,0.443 µM,11.3 µM,0.203 µM,> 100 µM,36 µM,> 100 µM,,,> 100 µM,2.02 µM
CCn1cc(C(=O)N/N=C/c2cccc(F)c2)c(=O)c2cc(F)c(N3CCNC(C)C3)c(F)c21 (stereo unspecified),1.62 µM,3.05 µM,1.55 µM,2.98 µM,1.79 µM,3.77 µM,1.69 µM,3.22 µM,,,1.78 µM,3.28 µM,1.33 µM,3.14 µM,1.73 µM,3.18 µM,1.77 µM,3.2 µM,3.23 µM,1.72 µM
O=C1/C(=C/c2ccccc2Br)COc2ccc(O)c(O)c21,2.17 µM,5.95 µM,3.37 µM,10.4 µM,0.261 µM,0.682 µM,1.66 µM,3.22 µM,1.94 µM,4.42 µM,3.95 µM,15 µM,,,2.01 µM,4.09 µM,1.55 µM,3.29 µM,3.27 µM,1.28 µM
CN(C)Cc1cccc(CN(C)C)[c]1[Sn]([Br])([c]1ccccc1)[c]1ccccc1,1.83 µM,7.94 µM,8.18 µM,71.8 µM,2.29 µM,6.86 µM,,,14.5 µM,35.2 µM,14.3 µM,30.6 µM,2.36 µM,12 µM,17.2 µM,46.9 µM,,,27.4 µM,12.6 µM
Cc1cccc2c1O/C(=C\c1ncc([N+](=O)[O-])n1C)C2=O,0.275 µM,1.19 µM,0.104 µM,0.404 µM,0.589 µM,2.01 µM,,,0.24 µM,0.688 µM,0.812 µM,3.83 µM,,0.0699 µM,0.257 µM,0.66 µM,0.316 µM,1.09 µM,0.474 µM,0.185 µM
O=C(CN1CCOCC1)CC(O)(C(F)(F)F)C(F)(F)F,,> 100 µM,,,,> 100 µM,,> 100 µM,,> 100 µM,,> 100 µM,,> 100 µM,,> 100 µM,,> 100 µM,> 100 µM,
O=S(=O)(NCCCNc1cc(-c2cn(-c3ccccc3)nc2-c2cccc(O)c2)ccn1)c1cccc2ccccc12,2.47 µM,7.58 µM,0.508 µM,1.71 µM,1.85 µM,7.89 µM,1.18 µM,5.04 µM,2.37 µM,7.33 µM,4.83 µM,> 100 µM,1.84 µM,7.33 µM,6.11 µM,44.9 µM,2.34 µM,8.38 µM,,
Cc1ccc(C(=O)CCC2C(=O)CC(C)(C)CC2=O)cc1,,> 100 µM,,> 100 µM,,,,> 100 µM,,> 100 µM,,> 100 µM,,65.5 µM,,> 100 µM,,> 100 µM,,
Oc1cccc(Cn2c(-c3cccc(O)c3O)nc3ccccc32)c1O,18.9 µM,81.1 µM,15.5 µM,> 100 µM,9.69 µM,> 100 µM,5.82 µM,25.4 µM,10.9 µM,27.6 µM,13.9 µM,75.4 µM,3.42 µM,> 100 µM,1.88 µM,7.52 µM,3.1 µM,12.6 µM,,
